Results: US9314539B2, “Nanosphere-histone acetyltransferase (HAT) activator composition, process and methods thereof” (JAWAHARLAL NEHRU CENTRE FOR ADVANCED SCIENTIFIC RESEARCH, priority 2012, dated 2016)
Like-named read-outs stand apart in the source and are kept apart here.

How the values were obtained:
[1] = test system: HeLa cells; assay: Cell permeability: western blot of acetylated H3 in treated HeLa cells; format: cell-based
Procedure: (A) western blot analysis of TTK21 untreated and treated HeLa cells for 24 hours. […] Primary probing of the blot is done with AcH3 and re-probing is done by H3 antibody.

[2] = test system: CBP; assay: HAT filter binding and gel fluorography assays with full length FLAG-CBP; format: biochemical
Procedure: TTK21 dissolved in DMSO is added to the reaction mixture at desired concentrations. Lane 1—Histone only, Lane 2—CBP enzyme added, Lane 3—DMSO added, Lane 4—50 μM TTK21, Lane 5—100 μM TTK21, Lane 6—200 μM TTK21 and Lane 7—275 μM TTK21.
COMPOUND 1 is synthesized using salicylic acid as a substrate as depicted in FIG. 1. […] The concentrations of COMPOUND 1 selected for this particular assay are 50 μM, 100 μM, 200 μM and 275 μM. […] These screening experiments are also repeated with full length FLAG-CBP (FIG. 3).
(§1) Highly purified HeLa core histones are incubated in HAT assay buffer at about 30° C. for a time-period of about 10 minutes with or without baculo virus expressed recombinant p300 or CBP in the presence or absence of small molecules (i.e. HAT activators). The incubation is followed by the addition of about 1 μl of 3.6 Ci/mmol ^3H-acetyl CoA (NEN-PerkinElmer) and further incubation for about 10 minutes in a final volume of 30 μl at 30° C. The mixture is blotted onto P-81 (Whatman) filter paper and radioactive counts are recorded on a Wallac 1409 liquid scintillator counter. For gel fluorographic assays, histones are isolated by trichloroacetic acid (TCA) precipitation using 25% TCA. The pellet obtained is washed twice with acetone and dissolved in 2×SDS loading dye, heated for about 5 mins and is followed by separation using 15% SDS-PAGE. […]

[3] = test system: SHSY cells; assay: Cell permeability in neural cell lines; format: cell-based
Procedure: The cell permeability tests of COMPOUND 1 alone is also carried out in various neural cell lines such as SHSY cells and the results are found to be similar to HeLa cells.

[4] = target: T1, p300 (Homo sapiens, UniProt Q09472); assay: Gel fluorography HAT assay with p300; format: biochemical
T1 sequence (Q09472 whole entry, species assumed): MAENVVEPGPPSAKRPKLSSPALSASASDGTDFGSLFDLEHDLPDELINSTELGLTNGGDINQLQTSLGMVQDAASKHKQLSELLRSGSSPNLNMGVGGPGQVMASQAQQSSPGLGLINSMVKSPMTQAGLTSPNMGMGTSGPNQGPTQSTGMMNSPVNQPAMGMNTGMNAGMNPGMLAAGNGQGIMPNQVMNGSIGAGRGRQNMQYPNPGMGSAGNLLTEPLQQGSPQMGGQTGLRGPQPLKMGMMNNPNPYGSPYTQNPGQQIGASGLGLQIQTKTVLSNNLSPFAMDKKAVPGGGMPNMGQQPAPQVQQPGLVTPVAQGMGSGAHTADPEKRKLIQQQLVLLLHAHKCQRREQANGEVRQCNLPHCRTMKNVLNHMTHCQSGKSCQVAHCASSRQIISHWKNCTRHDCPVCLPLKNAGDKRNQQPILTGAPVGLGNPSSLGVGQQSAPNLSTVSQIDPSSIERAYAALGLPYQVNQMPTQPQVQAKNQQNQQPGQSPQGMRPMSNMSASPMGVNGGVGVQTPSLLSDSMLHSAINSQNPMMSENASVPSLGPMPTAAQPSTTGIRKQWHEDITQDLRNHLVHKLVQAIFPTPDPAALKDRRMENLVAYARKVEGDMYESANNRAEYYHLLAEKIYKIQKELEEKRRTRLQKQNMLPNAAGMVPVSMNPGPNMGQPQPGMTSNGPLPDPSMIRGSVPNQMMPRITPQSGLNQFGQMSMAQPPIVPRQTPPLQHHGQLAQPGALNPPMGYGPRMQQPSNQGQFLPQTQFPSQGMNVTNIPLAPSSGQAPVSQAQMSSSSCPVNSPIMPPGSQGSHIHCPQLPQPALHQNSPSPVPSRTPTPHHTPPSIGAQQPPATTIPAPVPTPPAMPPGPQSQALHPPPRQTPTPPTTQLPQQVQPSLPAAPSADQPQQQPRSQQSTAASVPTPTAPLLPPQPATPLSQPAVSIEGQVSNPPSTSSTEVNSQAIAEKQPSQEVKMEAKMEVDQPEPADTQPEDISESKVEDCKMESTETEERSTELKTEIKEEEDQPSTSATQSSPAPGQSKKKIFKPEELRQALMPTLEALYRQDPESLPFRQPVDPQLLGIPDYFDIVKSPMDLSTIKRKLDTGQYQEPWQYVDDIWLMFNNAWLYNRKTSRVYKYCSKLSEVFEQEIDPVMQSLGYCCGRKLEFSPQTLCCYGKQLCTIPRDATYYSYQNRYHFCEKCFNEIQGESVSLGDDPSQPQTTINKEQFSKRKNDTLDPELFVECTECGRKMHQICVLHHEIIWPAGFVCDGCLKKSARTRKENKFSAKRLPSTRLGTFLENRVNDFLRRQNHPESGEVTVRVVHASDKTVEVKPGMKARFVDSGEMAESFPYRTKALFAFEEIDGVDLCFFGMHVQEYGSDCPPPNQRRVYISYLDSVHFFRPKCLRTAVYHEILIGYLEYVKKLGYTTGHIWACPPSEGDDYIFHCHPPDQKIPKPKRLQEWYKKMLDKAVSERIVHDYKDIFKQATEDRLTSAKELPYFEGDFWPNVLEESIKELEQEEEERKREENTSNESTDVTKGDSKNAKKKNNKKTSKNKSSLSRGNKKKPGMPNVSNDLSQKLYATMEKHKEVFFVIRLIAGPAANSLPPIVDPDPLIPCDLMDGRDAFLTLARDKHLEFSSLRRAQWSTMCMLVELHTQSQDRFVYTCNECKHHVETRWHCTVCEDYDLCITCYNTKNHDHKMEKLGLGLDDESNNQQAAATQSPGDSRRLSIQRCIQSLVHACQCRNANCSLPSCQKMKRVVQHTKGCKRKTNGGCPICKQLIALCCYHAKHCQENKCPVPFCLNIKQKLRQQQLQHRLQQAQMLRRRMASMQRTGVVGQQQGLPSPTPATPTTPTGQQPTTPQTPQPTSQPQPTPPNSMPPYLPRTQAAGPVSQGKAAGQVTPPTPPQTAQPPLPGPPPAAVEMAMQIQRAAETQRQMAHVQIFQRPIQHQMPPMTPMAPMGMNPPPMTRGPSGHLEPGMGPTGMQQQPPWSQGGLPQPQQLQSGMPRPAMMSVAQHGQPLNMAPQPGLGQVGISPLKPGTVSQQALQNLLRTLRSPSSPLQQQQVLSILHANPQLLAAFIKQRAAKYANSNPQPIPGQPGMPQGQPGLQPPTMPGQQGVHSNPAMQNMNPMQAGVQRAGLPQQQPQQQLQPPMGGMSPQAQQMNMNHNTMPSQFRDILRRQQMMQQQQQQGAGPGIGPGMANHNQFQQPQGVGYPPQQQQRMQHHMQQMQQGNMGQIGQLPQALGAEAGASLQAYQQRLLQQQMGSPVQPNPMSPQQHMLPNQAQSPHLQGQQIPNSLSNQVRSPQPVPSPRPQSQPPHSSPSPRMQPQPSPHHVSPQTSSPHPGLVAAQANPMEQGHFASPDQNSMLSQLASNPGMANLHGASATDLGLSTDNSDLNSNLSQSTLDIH
Procedure: FIG. 2 depicts (A) filter binding assay to show activation of p300 by TTK21. […] TTK21 dissolved in DMSO is added to the reaction mixture at desired concentrations. Lane 1—Histone only, Lane 2—p300 enzyme added, Lane 3—DMSO added, Lane 4—50 μM TTK21, Lane 5—100 μM TTK21, Lane 6—200 μM TTK21 and Lane 7—275 μM TTK21.
as §1, with “SDS-PAGE. Comassie staining is performed to ascertain the presence of equal loading in each reaction and is later dehydrated in DMSO for about 1 hour.” for “SDS-PAGE.”

[5] = test system: neurons expressing double cortin; assay: Neurogenesis in dentate gyrus of hippocampus, doublecortin staining; format: in vivo, mice; conditions: intraperitoneal; 3 days
Procedure: FIG. 18 depicts CSP-TTK21 induced neurogenesis in the inner wall of dentate gyms of mice hippocampus. […] of either CSP alone or TTK21 alone or CSP-TTK21 is injected intraperitonially into mice and after 3 days the mice are anesthetized and fixed with 4% paraformaldehyde. Brains are dissected out and post-fixed, cryoprotected and frozen. 20 μm thick sections are obtained and the results are analyzed by immunohistochemistry. Further, immunofluorescence assays are performed using antibody against double cortin. Scale bar represents 50 μm.
A-D, Immunohistochemistry analysis of the dentate gyms of mice, 3 days after intraperitonial injection of either CSP alone or CSP-TTK21 (20 mg/kg of body weight) using an antibody against doublecortin (DCX) followed by DAB staining. A typical photograph is shown (A). Scale bars: 100 μm. The timeline for injection and euthanasia is shown. h, hour; d, day. […] (C) The average of the longest dendrites associated to all DCX positive-new neuron within one hippocampus is calculated and is represented as histogram for each condition (CSP: 141.1 μm vs. CSP-TTK21: 176.9 μm, *p=0.0177, 4-6 sections/animal). (D), (A) typical cropped image from A is shown, on which the number of dendrites crossing virtual lines drawned at 60, 90 and 120 μm from the SGZ was counted (n=5 images/animal). […]

[6] = target: T1, p300; assay: HAT filter binding assay with p300; format: biochemical; conditions: for HAT activation (radioactivity counts): 200 μM, HeLa core histones as substrate
Description: To understand the mechanistic aspects HAT activation various small molecules are derivatized from CTPB. The initial tail less derivative of CTPB is nomenclatured as N-(4Chloro-3-trifluoromethy 1-pheny 1)-2-ethoxybenzamide [CTB]. CTB is further derivatized to TTK series of compounds (COMPOUNDS 1-9) (FIG. 29 A). These compounds are subjected to histone acetyltransferase assays (filter binding assay) to check for their ability to activate p300/CBP HAT. Core histones purified from HeLa nuclear pellet is used as the substrate and p300 purified from baculovirus infected Sf21 cells is used to determine the HAT modulation activity of these compounds. All compounds are used at a concentration of 200 μM in the HAT assays.
Highly purified HeLa core histones are incubated in HAT assay buffer at about 30° C. for a time-period of about 10 minutes with or without baculo virus expressed recombinant p300 or CBP in the presence or absence of small molecules (i.e. HAT activators). The incubation is followed by the addition of about 1 μl of 3.6 Ci/mmol ^3H-acetyl CoA (NEN-PerkinElmer) and further incubation for about 10 minutes in a final volume of 30 μl at 30° C. The mixture is blotted onto P-81 (Whatman) filter paper and radioactive counts are recorded on a Wallac 1409 liquid scintillator counter. For gel fluorographic assays, histones are isolated by trichloroacetic acid (TCA) precipitation using 25% TCA. The pellet obtained is washed twice with acetone and dissolved in 2×SDS loading dye, heated for about 5 mins and is followed by separation using 15% SDS-PAGE. Comassie staining is performed to ascertain the presence of equal loading in each reaction and is later dehydrated in DMSO for about 1 hour. Dehydrated gel is later incubated in scintillation fluid (PPO solution in DMSO) for about 45 minutes and rehydrated again in distilled water for about 4 hours. The gel is then dried using a gel drier and later exposed in an X-ray cassette using a film for about 5 days in −80° cooler. The film is then developed to obtain the intensity profiles for each of the reactions.

## CCCOc1ccccc1C(=O)Nc1ccc(Cl)c(C(F)(F)F)c1 [COMPOUND 1, N-(4-Chloro-3-trifluoromethyl-phenyl)-2-n-propoxy-benzamide]
[1]
  cell permeability: inability of the COMPOUND 1 molecule itself to enter into mammalian cells
[1]; 50-275 μM, 24 hrs
  histone H3 acetylation: no alteration of histone H3 acetylation
[1]; listed as TTK21
  cell permeability: impermeable to cells
[2]; 50-275 μM
  activation of CBP, dose dependence: dose dependent activation of CBP
[2]; filter binding and gel fluorography
  concentration of maximum activation of CBP: 275 µM
[3]
  cell permeability: inability of the COMPOUND 1 molecule alone to enter into mammalian cells
[4]
  concentration of maximum activation of p300: 275 µM
[4]; 50-275 μM
  activation of p300, dose dependence: dose dependent manner
[5]
  double cortin expression in dentate gyrus: doesn't show double cortin expression
[6]
  HAT activation (radioactivity counts): one of the most efficient HAT activator
[6]; listed as TTK21
  HAT activation (radioactivity counts): significant increase in radioactivity counts compared to other compounds
[6]; filter binding
  concentration of maximum activation of p300: 250 to 275 µM
[6]; filter binding, 50-275 μM
  activation of p300, dose dependence: Dose dependent activation of p300
[6]; filter binding, tested 50, 100, 200, 275 μM
  concentration from which activation of p300 starts: 5004
